Reference: patent publication US6271342A, “Sugar-modified cytostatics” (Bayer Aktiengesellschaft, priority 1995, dated 2001)
≈ marks a conversion by molar mass, not a printed value. Where “and” joins values, the source holds several entries; their conditions need not be identical. Identical values can stand only once.

Tests used:
[1] = test system: HT 29; assay: Growth inhibition test (MTT) for cytotoxic properties; assay type: cell-based, human; settings: Table 1b
In short: (§1)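 IC50 values come from an MTT read at 540 nm (5 h at 37 °C, 5 mg/ml MTT stock), taken on day 3 and day 6. Cells (HT 29, SW 480; 50,000 cells/ml in RPMI/10% FCS) were pre-cultured 1 day, then compound in DMSO was added.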

[2] = test system: SW 480; assay: as above; assay type: cell-based, human; settings: Table 1b
In short: as §1

[3] = test system: B 16 F 10; assay: as above; assay type: cell-based, mouse; settings: Table 1b
In short: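 Cells in RPMI 1640 with 10% FCS pre-cultured 1 day at 37° C, then exposed to test substances in DMSO; growth checked after day 3 and day 6. Read-out by MTT, 5 h incubation, isopropanol solubilization, extinction at 540 nm.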

[4] = Cleavage kinetics with human blood (HPLC); assay type: in vitro ADME; settings: Table 2b; 37° C.
Excerpt: In Vitro Investigation of the Cleavability of the Glycoconjugates
Cleavage Kinetics With Human Blood

[5] = test system: bone marrow parent cells of the mouse; assay: CSF-induced proliferation of bone marrow parent cells, in vitro; assay type: cell-based; settings: recombinant murine GM-CSF, 7 days
Protocol: Bone marrow cells are flushed out of the femur of mice. 10^5 cells are incubated in McCoy SA medium (0.3% agar) together with recombinant murine GM-CSF (Genzyme; parent cell colony formation) and the substances (10^-4 to 100 μg/ml) at 37° C. and 7% CO2. 7 days later, the colonies ([…]) and clusters (17-50 cells) are counted.

[6] = test system: CXF 280; assay: Two-layer soft agar culture of human tumour xenografts; assay type: cell-based; settings: T/C ≤30%
Protocol: (§2) The in vitro activity of glycoconjugates of quinolone-a was determined on human tumour xenografts in a two-layer soft agar culture system according to Hamburger and Salmon (Science 197: 461-463).
(§3) The solid tumours were initially grown in the athymic naked mouse (NMRI nu/nu), obtained by surgery and comminuted mechanically. Individual cells were then obtained by incubation in an enzyme mixture of collagenase 0.05%, DNAse 0.07% and hyaluronidase 0.1% in RPMI at 37° C. for 30 minutes. The cells were washed 2× and then passed through a sieve of 200 μm and 20 μm mesh width.
(§4) The base layer comprises 0.2 ml of Iscoves's Modified Dulbeccos Medium with 20% foetal calf serum and 0.7% agar. 40,000 to 200,000 cells in 0.2 ml of the same medium and 0.4% agar were applied to this layer in 24 multiwell plates. The cytostatic substances were added in 0.2 ml of medium.
(§5) The cultures were incubated at 37° C. in a 7% CO2 atmosphere for 6 to 15 days. The colonies which had grown were then counted under an inverting microscope, the living colonies being stained with a tetrazolium chloride dyestuff 24 hours before the evaluation.
(§6) The effect of the active compound is expressed in per cent of surviving colonies compared with the colony count of untreated plates (T/C=colony count treated×100/control count untreated).
(§7) A substance is active if the T/C value is ≤30%.
(§8) This value is shown as the IC70 value in μg/ml in Table 8.

[7] = test system: HT 29; assay: as above; assay type: cell-based; settings: T/C ≤30%
Protocol: as §2, §3, §4, §5, §6, §7, §8

[8] = test system: LXFL 529; assay: as above; assay type: cell-based; settings: T/C ≤30%
Protocol: as §2, §3, §4, §5, §6, §7, §8

[9] = test system: LXFS 538; assay: as above; assay type: cell-based; settings: T/C ≤30%
Protocol: as §2, §3, §4, §5, §6, §7, §8

[10] = test system: MEXF 989; assay: as above; assay type: cell-based; settings: T/C ≤30%
Protocol: as §2, §3, §4, §5, §6, §7, §8

[11] = test system: OVXF 1023; assay: as above; assay type: cell-based; settings: T/C ≤30%
Protocol: as §2, §3, §4, §5, §6, §7, §8

[12] = test system: OVXF 899; assay: as above; assay type: cell-based; settings: T/C ≤30%
Protocol: as §2, §3, §4, §5, §6, §7, §8

[13] = test system: SW 480; assay: as above; assay type: cell-based; settings: T/C ≤30%
Protocol: as §2, §3, §4, §5, §6, §7, §8

[14] = test system: SW-480
Protocol: Cleavage Kinetics With Cells
(§9) 2.25 ml of PBS are incubated together with 225 μl of a cell suspension (30 mg/ml) and 25 μl of substrate stock solution (1 mg/ml in 3% dimethyl sulphoxide in PBS) at 37° C. After 1 hour and 24 hours, samples of in each case 1 ml are taken, mixed with 1 ml of ethanol and left to stand at 4° C. for 20 minutes. After centrifugation (5 minutes at 3500 rpm), 100 μl of supernatant are taken for the HPLC analysis.

[15] = test system: hepatoma
Protocol: Cleavage Kinetics With Cells
as §9

[16] = test system: large-cell lung carcinoma LXFL 529; assay: In vivo inhibition of tumour growth using a naked mouse model; parameters: species or system Athymic naked mice (NMRI nu/nu strain)
Excerpt: Athymic naked mice (NMRI nu/nu strain) were used for all the in vivo experiments for investigation of the inhibition of tumour growth. The large-cell lung carcinoma LXFL 529 selected was developed by serial passage in naked mice.
The tumour was implanted subcutaneously in both flanks of nu/nu naked mice 6 to 8 weeks old. Treatment was started, regardless of the doubling time, as soon as the tumours had reached a diameter of 5-7 mm. The mice were allocated to the treatment group and the control group (5 mice per group with 8-10 evaluable tumours) by randomization. The individual tumours of the control group all grew progressively.
The size of the tumours was measured in two dimensions by means of a sliding gauge. The tumour volume, which correlates well with the cell count, was then used for all the evaluations. The volume was calculated according to the equation "length×breadth×breadth/2" ([a×b^2 ]/2, a and b represent two diameters at right angles). The values of the relative tumour volume (RTV) were calculated for each individual tumour by dividing the tumour size on day X with the tumour size on day 0 (at the time of randomization). The mean RTV values were then used for the further evaluation.
The inhibition of the increase in the tumour volume (tumor volume of the test group/control group, T/C, in per cent) was the concluding measurement value.
All the compounds were administered according to an intermittent plan in each case on day 1, 5 and 9. Furthermore, all the compounds were administered intraperitoneally (i.p.) using water as the solvent.

[17] = test system: tumour cell lines; assay: Growth inhibition test, carbohydrate-free comparison compounds (cell line not stated); assay type: cell-based
Protocol: The human colon cell lines SW 480 and HT 29 (ATCC no. CCL 228 and HBT-38) and the mouse melanoma cell line B 16 F 10 were cultured in Roux dishes in RPMI 1640 medium with addition of 10% FCS. The cultures were then trypsinized and taken up in RPMI plus 10% FCS to a cell count of 50,000 cells/ml. 100 μl of cell suspension/well were introduced into a 96 microwell plate and incubated for 1 day at 37° C. in a CO2 incubating cabinet. A further 100 μl of RPMI medium and 1 μl of dimethyl sulphoxide with the test substances were then added. The growth was checked after day 3 and day 6. 40 μl of MTT solution (3-(4,5-dimethylthiazol-2-yl)-2,5-diphenyltetrazoline bromide) with an initial concentration of 5 mg/ml of H2 O were added to each microwave. The plate was incubated for 5 hours in a CO2 incubating cabinet at 37° C. The medium was then sucked off and 100 μl of i-propanol/well were added. After shaking for 30 minutes with 100 μl of H2 O, the extinction was measured at 540 nm with a Titertek Multiskan MCC/340 (Flow).

Compound	% cleavage in human blood 1 hour [4]	% cleavage in human blood 24 hours [4]	% cleavage in SW-480 1 hour [14]	% cleavage in SW-480 24 hours [14]	% cleavage in hepatoma 1 hour [15]	% cleavage in hepatoma 24 hours [15]	IC50 [17]	IC50 [1]	IC50 [2]	IC50 [3]	IC50 [μg/ml] CSF-induced proliferation of bone marrow parent cells of the mouse [5]	IC70 /μg/ml [6]	IC70 /μg/ml [7]	IC70 /μg/ml [8]	IC70 /μg/ml [9]	IC70 /μg/ml [10]	IC70 /μg/ml [11]	IC70 /μg/ml [12]	IC70 /μg/ml [13]	further results
CC1OC(Oc2ccc(NC(=S)NC(CCCCN)C(=O)NC3C=CCC4CN(c5c(F)cc6c(=O)c(C(=O)[O-])cn(C7CC7)c6c5Cl)CC43)cc2)C(O)C(OCC(=O)[O-])C1O.[Na+].[Na+] (mixture of isomers) [Example 12.6, N-{N^α -[O-(3-O-Carboxymethyl-β-L-fucosyl)-4-hydroxy-phenylamino-thiocarbonyl]-lysyl}-quinolone-a, di-sodium salt]								7 µM	4 µM	0.3 µM	0.3 µg/mL									Dose [mg/kg/day], maximum tolerated dose (MTD) ([16]; i.p. in water on day 1, 5 and 9): 100 mg/kg/day; Survival time ([16]; individual mice, treated at MTD i.p. on day 1, 5 and 9, di-sodium salt): 23 days and > 26 days and 26 days; Relative tumour volume [% of day 0] ([16]; on day 19, treated at MTD i.p. on day 1, 5 and 9): 300.7 % of day 0; Optimum T/C ([16]; on day 19, tumour volume of test group/control group): 19.4%
COC1C(O)C(C)OC(Oc2ccc(NC(=S)NC(CCCCN)C(=O)NC3C=CCC4CN(c5c(F)cc6c(=O)c(C(=O)O)cn(C7CC7)c6c5Cl)CC43)cc2)C1O [Example 12.5, N-{N^α -[O-(3-O-Methyl-β-L-fucosyl)-4-hydroxy-phenylamino-thiocarbonyl]-lysyl}-quinolone-a]								4 µM	1 µM	0.2 µM		< 0.3 µg/mL	11 µg/mL (≈ 12.8 µM)	2 µg/mL (≈ 2.33 µM)	< 0.3 µg/mL	0.5 µg/mL (≈ 0.583 µM)	9 µg/mL (≈ 10.5 µM)	55 µg/mL (≈ 64.1 µM)	10 µg/mL (≈ 11.7 µM)	

Second part, led by results:

% cleavage in human blood 1 hour [4]	% cleavage in human blood 24 hours [4]	% cleavage in SW-480 1 hour [14]	% cleavage in SW-480 24 hours [14]	% cleavage in hepatoma 1 hour [15]	% cleavage in hepatoma 24 hours [15]	IC50 [17]	Compound	IC50 [1]	IC50 [2]	IC50 [3]	IC50 [μg/ml] CSF-induced proliferation of bone marrow parent cells of the mouse [5]	IC70 /μg/ml [6]	IC70 /μg/ml [7]	IC70 /μg/ml [8]	IC70 /μg/ml [9]	IC70 /μg/ml [10]	IC70 /μg/ml [11]	IC70 /μg/ml [12]	IC70 /μg/ml [13]	further results
0%	0%	0%	0%	0%	0%		COC1C(O)C(C)OC(Oc2ccc(NC(=S)NCCCCC(NC(=S)Nc3ccc(OC4OC(C)C(O)C(OC)C4O)cc3)C(=O)NC3C=CCC4CN(c5c(F)cc6c(=O)c(C(=O)O)cn(C7CC7)c6c5Cl)CC43)cc2)C1O (mixture of isomers) [Example 11.7, N-{N^α,N^ε -Bis-[O-(3--methyl-β-L-fucosyl)-4-hydroxy-phenylamino-thiocarbonyl]-D -lysyl}-quinolone-a]	13 µM	12 µM	15 µM	2.9 µg/mL	> 100 µg/mL	56 µg/mL	4 µg/mL	18 µg/mL	3 µg/mL	136 µg/mL	234 µg/mL	18 µg/mL	
0%	0%	0%	0%	0%	0%		CO[C@H]1[C@H](O)[C@@H](Oc2ccc(NC(=S)N[C@H](C)C(=O)NC3C=CCC4CN(c5c(F)cc6c(=O)c(C(=O)O)cn(C7CC7)c6c5Cl)CC43)cc2)O[C@@H](C)[C@H]1O (stereo partly drawn) [Example 12.1, N-{N'-[O-(3-O-Methyl-β-L-fucosyl)-4hydroxy-phenylamino-thiocarbonyl]-D -alanyl}-quinolone-a]	1.5 µM	1 µM	0.1 µM	0.21 µg/mL	70 µg/mL (≈ 87.5 µM)	6 µg/mL (≈ 7.5 µM)	0.9 µg/mL (≈ 1.12 µM)	0.4 µg/mL (≈ 0.5 µM)	< 0.3 µg/mL	12 µg/mL (≈ 15 µM)	45 µg/mL (≈ 56.2 µM)	8 µg/mL (≈ 10 µM)	
						> 250 µM	N-[N^α,N^ε -bis-(4-hydroxyphenylamino-thiocarbonyl)-lysyl-D-alanyl]-batracyline													
						> 250 µM	N-[N^α,N^ε -bis-(4-hydroxyphenylamino-thiocarbonyl)-lysyl]-batracyline													
